Values quoted from earlier work, collected in patent US20240065974A1, “ORAL THIN FILM” (LTS Lohmann Therapie-Systeme AG, priority 2021, published 2024).

Conditions: compared with (R)-ketamine

CNC1(c2ccccc2Cl)CCCCC1=O (racemic) [(S)-ketamine, (S)-(±)-2-(2-chlorophenyl)-2-(methylamino)cyclohexan-1-one]
Analgesic and anaesthetic potency relative to the (R) form: approximately three times higher
